Target: T1, N-formyl peptide receptor 2 (Homo sapiens, UniProt P25090)
T1 sequence (P25090 whole entry): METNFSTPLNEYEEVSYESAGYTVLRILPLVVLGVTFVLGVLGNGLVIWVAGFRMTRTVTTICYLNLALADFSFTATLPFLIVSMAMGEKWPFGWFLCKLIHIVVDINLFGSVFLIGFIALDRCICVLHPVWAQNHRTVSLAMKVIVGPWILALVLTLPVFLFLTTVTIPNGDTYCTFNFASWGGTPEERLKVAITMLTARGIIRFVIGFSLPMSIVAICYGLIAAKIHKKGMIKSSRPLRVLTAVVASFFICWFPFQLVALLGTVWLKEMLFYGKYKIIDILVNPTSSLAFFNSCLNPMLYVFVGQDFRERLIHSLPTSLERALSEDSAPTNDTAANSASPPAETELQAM
Experiment: hFPRL1-Mediated Ca2+ Mobilization Assay
Settings: pH 7.2; 37 °C
Method: hFPRL 1 activity was assayed using an aequorin-based bioluminescence assay (Ca2+ flux). EC50 values have been determined by Ca2+ flux in CHO recombinant cells co-expressing hFPRL1, G (alpha15) protein, and aequorin.

Work on `COc1ccc2[nH]c(C(=O)N3CCC(n4c(=O)[nH]c5ccccc54)CC3)cc2c1` [1-{1-[(5-methoxy-1H-indol-2-yl)carbonyl]piperidin-4-yl}-1,3-dihydro-2H-benzimidazol-2-one] yielded an EC50 of 6.39 µM.
